Measured values published in patent US10800741B2 (ANCUREALL PHARMACEUTICAL (SHANGHAI) CO., LTD., priority 2017, dated 2020).

Assays:
KCL-22 (BCR-ABL) = assay: In vitro growth inhibition of KCL-22 tumor cells (MTT/CCK8); type: cell-based, Human; conditions: Homo sapiens, KCL-22; in vitro growth inhibition (or induction of apoptosis), cells cultured 3 to 5 days, MTT (CCK8); read-out: IC50 KCL-22 (BCR-ABL)
Jurkat = assay: In vitro growth inhibition of FLT3 wild-type normal expressing cells Jurkat; type: cell-based; conditions: Homo sapiens, cells normally expressing FLT3 wild-type
Procedure: (§1) Adherent cells were digested with 0.25% trypsin-EDTA (Gibco). Suspension culture cells were collected by centrifugation (1700 rpm, 3 minutes). The supernatant was discarded and the cells were counted. According to each cell growth cycle, different concentrations of cells were prepared (5˜10×10^4 cells per ml), and inoculated to 96-well plates (Corning), with 100 μl per well, and incubated overnight at 37° C., 5% CO2. The next day, the test compound was added to the cultured cells (2 wells in parallel). The final concentration of the solvent was less than 1/1,000. The cells were further cultured for 3 to 5 days and assayed by MTT.
(§2) The MTT test reagent was a Dojindo CCK8 kit and the Microplate Reader was a THERMO […] FC instrument.
(§3) The adherent cells were taken out from the cell culture medium, and immediately added to a freshly prepared complete medium containing 10% CCK8 (5% FBS), 100 ul per hole. The suspended cells were directly added to a CCK8 reagent until reaching a final concentration of 10% and cultured for 1 to 4 hours. When a dark yellow color could be observed in the solvent control wells, the absorbance value at OD450 nm was measured and the cell growth rate was calculated according to the following formula: Cell Growth Rate (%)=100×(T−T0)/(C−T0)
(§4) T=optical density of drug-treated cell wells−optical density of blank control wells; T0=optical density of cell wells before drug treatment−optical density of blank control wells; C=optical density of solvent control wells−optical density of blank control wells. […] The experiments were repeated 1 to 3 times and a statistical analysis of data was conducted.
(§5) The present compounds which has a high growth inhibition activity on tumor cells positive expressing FLT3-ITD were selected for the determination of IC50 concentration on FLT3 wild tyoverexpressing cells RS4:11 and FLT3 wild-type normal expressing cells Jurkat. The specific test method is the same as that of test example 1.

[1] = tested on: human intestinal cancer cell line HCT116 (KRAS G13D mutation); assay: Growth inhibition in combination with MEK1/2 inhibitor Trametinib, HCT116 (KRAS G13D mutation); type: cell-based; conditions: 5 days
Procedure: Test Example 5 Synergistic Inhibition Effect of the Present Compounds in Combination with MEK1/2 Inhibitor on the Growth of RAS Mutant Tumor Cells In Vitro
The cell culture, drug treatment and MTT assay of human intestinal cancer cell line HCT116 (KRAS G13D mutation) and human non-small cell lung cancer cell line NCI-H1299 (NRAS Q61K mutation) were performed according to the method of test example 1. Cells were treated with the MEK1/2 inhibitor Trametinib at 25 nM, 2.5 nM and 0.25 nM alone or in combination with compound 66 or 125 of the present invention (5 days).

Hep G2 = assay: In vitro growth inhibition of Hep G2 cells; type: cell-based; conditions: Homo sapiens, HepG2, FGFR3+++, FGFR4 +++
Procedure: as §1, §2, §3, §4
Mutations in the FGFR1-4 gene often occur in different types of cancer patients. In order to test the growth inhibition activity of the present compound against tumor cells expressing different FGFR variants, tumor cell lines expressing representative FGFR1-4 were selected for further determining the activity of compounds 25, 66, 38 and 95 of the present invention. BGJ398, a selective inhibitor of FGFR1-4, was used as the control compound. The specific test method is the same as test example 1.

RS4:11 = assay: In vitro growth inhibition of FLT3 wild type overexpressing cells RS4:11; type: cell-based; conditions: Homo sapiens, cells over expressing FLT3 wild-type
Procedure: as §1, §2, §3, §4, §5

SK-OV-3 = assay: In vitro growth inhibition of PI3KCA amplified/mutant tumor cells SK-OV-3; type: cell-based; conditions: Homo sapiens; SK-OV-3; PI3KCA H1047R; HER2 amp; read-out: IC50 growth inhibition
Procedure: as §1, with “Suspension” for “Adherent cells were digested with 0.25% trypsin-EDTA (Gibco). Suspension”
The adherent cells were taken out from the cell culture medium, and immediately added to a freshly prepared complete medium containing 10% CCK8 (5% FBS), 100 ul per hole. The suspended cells were directly added to a CCK8 reagent until reaching a final concentration of 10% and cultured for 1 to 4 hours.
as §4

| Compound | IC50 (KCL-22 (BCR-ABL)) | IC50 (Jurkat) | inhibition at 0.0078 µM ([1]; Homo sapiens, HCT-116, 120 h, compound 7.8 nM alone (solvent instead of Trametinib), read-out: cell growth inhibition (percentage)) | inhibition at 0.0156 µM ([1]; Homo sapiens, HCT-116, 120 h, compound 15.6 nM alone (solvent instead of Trametinib), read-out: cell growth inhibition (percentage)) | cell growth inhibition (percentage) ([1]; compound 7.8 nM + Trametinib 0.25 nM) | cell growth inhibition (percentage) ([1]; compound 7.8 nM + Trametinib 2.5 nM) | cell growth inhibition (percentage) ([1]; compound 7.8 nM + Trametinib 25 nM) | cell growth inhibition (percentage) ([1]; compound 15.6 nM + Trametinib 0.25 nM) | cell growth inhibition (percentage) ([1]; compound 15.6 nM + Trametinib 2.5 nM) | cell growth inhibition (percentage) ([1]; compound 15.6 nM + Trametinib 25 nM) | IC50 (Hep G2) | IC50 (RS4:11) | IC50 (SK-OV-3) |
| --- | --- | --- | --- | --- | --- | --- | --- | --- | --- | --- | --- | --- | --- |
| COCCOc1cc2nccc(Oc3ccc(NC(=O)Nc4cc(C(C)(C)C)n[nH]4)c(Cl)c3)c2cc1NC(C)=O [Compound 66, N-[4-{4-[3-(5-tert-butyl-2H-pyrazol-3-yl)-ureido]-3-chloro-phenoxy}-7-(2-methoxy-ethoxy)-quinolin-6-yl]-acetamide] | 3.12 nM | 462 nM | 7.67% | 22% | 62.24% | 73.79% | 80.52% | 66.72% | 77.07% | 81.03% | 79.1 nM | 523 nM | 42.3 nM |
| COc1cc2nccc(Oc3ccc(NC(=O)Nc4cc(C(C)(C)C)nn4C)c(Cl)c3Cl)c2cc1C(N)=O [Compound 38, 4-{4-[3-(5-tert-butyl-2-methyl-2H-pyrazol-3-yl)-ureido]-2,3-dichloro-phenoxy}-7-methoxyquinolin-6-carboxamide] | 0.481 nM | 202 nM | – | – | – | – | – | – | – | – | 119 nM | 65.8 nM | 32.3 nM |
| CN1CCN(CCCOc2cc3nccc(Oc4ccc(NC(=O)Nc5cc(C(C)(C)C)n[nH]5)c(Cl)c4Cl)c3cc2C(N)=O)CC1 [Compound 95] | 7.03 nM | – | – | – | – | – | – | – | – | – | 128 nM | – | 26.4 nM |
